These results are taken from patent publication US9750256B2, “Herbicidal isoxazolo[5,4-B]pyridines” (BASF SE, priority 2012, dated 2017).

Holding throughout (format): in vivo
Test [1] has as its system Amaranthus retroflexus L. (pigweed). Kind of test: Greenhouse post-emergence treatment of Amaranthus retroflexus L. The settings on record: scale 0 (no damage) to 100 (complete destruction). From the text:
(§1) The culture containers used were plastic flowerpots containing loamy sand with approximately 3.0% of humus as the substrate. The seeds of the test plants were sown separately for each species.
(§2) For the post-emergence treatment, the test plants were first grown to a height of 3 to 15 cm, depending on the plant habit, and only then treated with the active ingredients which had been suspended or emulsified in water. For this purpose, the test plants were either sown directly and grown in the same containers, or they were first grown separately as seedlings and transplanted into the test containers a few days prior to treatment.
(§3) Depending on the species, the plants were kept at 10-25° C. or 20-35° C. The test period extended over 2 to 4 weeks. During this time, the plants were tended, and their response to the individual treatments was evaluated.
(§4) Evaluation was carried out using a scale from 0 to 100. 100 means no emergence of the plants, or complete destruction of at least the aerial moieties, and 0 means no damage, or normal course of growth. A good herbicidal activity is given at values of at least 80 and a very good herbicidal activity is given at values of at least 90.

In test [2] the test system is Chenopodium album (fat-hen). In words: Greenhouse post-emergence treatment of Chenopodium album. Conditions: scale 0 (no damage) to 100 (complete destruction).
Source text: as §1, §2, §3, §4

For test [3], the system named is Polygonum convolvulus (wild buckwheat). In words: Greenhouse post-emergence treatment of Polygonum convolvulus. Conditions: scale 0 (no damage) to 100 (complete destruction).
Source text: as §1, §2, §3, §4

For test [4], the system named is Setaria viridis (green foxtail). Kind of test: Greenhouse post-emergence treatment of Setaria viridis. The settings on record: application rate 500 [kg/ha], scale 0 (no damage) to 100 (complete destruction).
Source text: as §1, §2, §3, §4

The subject of test [5] is Echinochloa crus-galli (barnyard grass). In words: Greenhouse post-emergence treatment of Echinochloa crus-galli. The settings on record: application rate 500 [kg/ha], scale 0 (no damage) to 100 (complete destruction).
Source text: as §1, §2, §3, §4

Turning to `O=C(O)c1cc(C2CC2)nc2onc(OC3CCCC3)c12` [I.a.91], the “damage [%]” value was 100% in test [1] (application rate 500 [g/ha]) and 98% in test [2] (application rate 500 [kg/ha]).
The corresponding values for `O=C(O)c1cc(C2CC2)nc2onc(OC3CCCCC3Cl)c12` (stereo not shown) [I.a.88] are 100% and 100%.
As to `CCC(CCc1noc2nc(C3CC3)cc(C(=O)O)c12)=NO` (mixture of isomers) [I.a.79], the entries for the “damage [%]” value in test [1] (application rate 500 [g/ha]) and in test [3] (application rate 500 [kg/ha]) were 100% and 85%, respectively.
Turning to `O=C(O)c1cc(C2CC2)nc2onc(OC3CCC3)c12` [I.a.92], the “damage [%]” value was 100% in test [1] (application rate 500 [g/ha]), 100% in test [2] (application rate 500 [kg/ha]) and 85% in test [4].
For `CON=CCCc1noc2nc(C3CC3)cc(C(=O)O)c12` [I.a.59], the “damage [%]” value in test [1] (application rate 500 [g/ha]) and in test [2] (application rate 500 [kg/ha]) was 98% in each case.
As to `COCCOc1noc2nc(C3CC3)cc(C(=O)O)c12` [I.a.67], the “damage [%]” value in test [2] (application rate 1000 [kg/ha]) was found to be 100%; in test [3] (application rate 1000 [kg/ha]) it was 98%.
`CCC(CCc1noc2nc(C3CC3)cc(C(=O)O)c12)=NOC` (mixture of isomers) [I.a.80]: the “damage [%]” value in test [1] (application rate 500 [g/ha]) is recorded as 100%; in test [2] (application rate 500 [kg/ha]), 98%; in test [3] (application rate 500 [kg/ha]), 100%.
Turning to `C=CCOc1noc2nc(C3CC3)cc(C(=O)O)c12` [I.a.44], the “damage [%]” value in test [1] (application rate 1000 [g/ha]) and in test [2] (application rate 1000 [kg/ha]) was 100% each time.
On to `O=C(O)c1cc(C2CC2)nc2onc(SCc3ccccc3)c12` [I.a.85], for which the “damage [%]” value in test [5] came out at 70%.
Take `O=C(O)c1cc(C2CC2)nc2onc(SC3CCCCC3)c12` [I.a.86]: the “damage [%]” value in test [1] (application rate 500 [g/ha]) is 95%.
On to `CCC(CCc1noc2nc(C3CC3)cc(C(=O)O)c12)=NN` [I.a.81], for which the “damage [%]” value in test [2] (application rate 500 [kg/ha]) came out at 75%.
Take `O=C(NCC(F)(F)F)NN=CCCc1noc2nc(C3CC3)cc(C(=O)O)c12` [I.a.60]: in test [3] (application rate 500 [kg/ha]), the “damage [%]” value was 95%.
Regarding `O=C(O)c1cc(C2CC2)nc2onc(OC3COC3)c12` [I.a.89], the “damage [%]” value in test [1] (application rate 500 [g/ha]) and in test [2] (application rate 500 [kg/ha]) was 70% each time.
Take `O=C(O)c1cc(C2CC2)nc2onc(OCc3ccccc3)c12` [I.a.66]: the “damage [%]” value in test [1] (application rate 1000 [g/ha]) and in test [2] (application rate 1000 [kg/ha]) was 100% in each case.
With `O=C(O)c1cc(C2CC2)nc2onc(SC3CCCC3)c12` [I.a.87], the “damage [%]” value turned out to be 80% in test [1] (application rate 500 [g/ha]), 70% in test [2] (application rate 500 [kg/ha]) and 75% in test [5].
Turning to `CCC(=O)CCc1noc2nc(C3CC3)cc(C(=O)O)c12` [I.a.74], the “damage [%]” value in test [1] (application rate 500 [g/ha]) and in test [2] (application rate 500 [kg/ha]) was 98% throughout.
